Results reported in PubChem BioAssay (NCI).
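Each compound was tested at five concentrations against cells in 96-well plates for 48 hours. Here, GI50 denotes the concentration required for 50% inhibition of growth. The concentration for full growth arrest is given as TGI.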

Columns and labels:
Experiment in all cases: growth of human tumour cells (NCI), 48 h
786-0 renal = test system: 786-0 renal
A498 renal = test system: A498 renal
A549 NSCLC = test system: A549 NSCLC
ACHN renal = test system: ACHN renal
BT-549 breast = test system: BT-549 breast
CAKI-1 renal = test system: CAKI-1 renal
CCRF-CEM leukemia = test system: CCRF-CEM leukemia
COLO 205 colon = test system: COLO 205 colon
DU-145 prostate = test system: DU-145 prostate
EKVX NSCLC = test system: EKVX NSCLC
HCC-2998 colon = test system: HCC-2998 colon
HCT-116 colon = test system: HCT-116 colon
HCT-15 colon = test system: HCT-15 colon
HL-60(TB) leukemia = test system: HL-60(TB) leukemia
HOP-62 NSCLC = test system: HOP-62 NSCLC
HOP-92 NSCLC = test system: HOP-92 NSCLC
HS 578T breast = test system: HS 578T breast
HT29 colon = test system: HT29 colon
IGROV1 ovarian = test system: IGROV1 ovarian
K-562 leukemia = test system: K-562 leukemia
KM12 colon = test system: KM12 colon
LOX IMVI melanoma = test system: LOX IMVI melanoma
M14 melanoma = test system: M14 melanoma
MALME-3M melanoma = test system: MALME-3M melanoma
MCF7 breast = test system: MCF7 breast
MDA-MB-231 breast = test system: MDA-MB-231 breast
MDA-MB-435 = test system: MDA-MB-435
MDA-MB-468 breast = test system: MDA-MB-468 breast
MOLT-4 leukemia = test system: MOLT-4 leukemia
NCI-H226 lung = test system: NCI-H226 lung
NCI-H23 lung = test system: NCI-H23 lung
NCI-H460 lung = test system: NCI-H460 lung
NCI-H522 lung = test system: NCI-H522 lung
NCI/ADR-RES ovarian = test system: NCI/ADR-RES ovarian
OVCAR-3 ovarian = test system: OVCAR-3 ovarian
OVCAR-4 ovarian = test system: OVCAR-4 ovarian
OVCAR-5 ovarian = test system: OVCAR-5 ovarian
OVCAR-8 ovarian = test system: OVCAR-8 ovarian
PC-3 prostate = test system: PC-3 prostate
RPMI-8226 leukemia = test system: RPMI-8226 leukemia
RXF 393 renal = test system: RXF 393 renal
SF-268 CNS = test system: SF-268 CNS
SF-295 CNS = test system: SF-295 CNS
SF-539 CNS = test system: SF-539 CNS
SK-MEL-2 melanoma = test system: SK-MEL-2 melanoma
SK-MEL-28 melanoma = test system: SK-MEL-28 melanoma
SK-MEL-5 melanoma = test system: SK-MEL-5 melanoma
SK-OV-3 ovarian = test system: SK-OV-3 ovarian
SN12C renal = test system: SN12C renal
SNB-19 CNS = test system: SNB-19 CNS
SNB-75 CNS = test system: SNB-75 CNS
SR leukemia = test system: SR leukemia
SW-620 colon = test system: SW-620 colon
T-47D breast = test system: T-47D breast
TK-10 renal = test system: TK-10 renal
U251 CNS = test system: U251 CNS
UACC-257 melanoma = test system: UACC-257 melanoma
UACC-62 melanoma = test system: UACC-62 melanoma
UO-31 renal = test system: UO-31 renal

O=C(NNc1nc2cc(C(F)(F)F)ccc2n2cccc12)c1cnccn1
GI50 (786-0 renal): 365 nM | TGI (786-0 renal): 1690 nM | GI50 (A498 renal): 1620 nM | TGI (A498 renal): 3340 nM | GI50 (A549 NSCLC): 424 nM | TGI (A549 NSCLC): 8910 nM | GI50 (ACHN renal): 217 nM | TGI (ACHN renal): 1450 nM | GI50 (BT-549 breast): 1060 nM | TGI (BT-549 breast): 3410 nM | GI50 (CAKI-1 renal): 299 nM | TGI (CAKI-1 renal): 1660 nM | GI50 (CCRF-CEM leukemia): 141 nM | TGI (CCRF-CEM leukemia): 1950 nM | GI50 (COLO 205 colon): 364 nM | TGI (COLO 205 colon): 1480 nM | GI50 (DU-145 prostate): 526 nM | TGI (DU-145 prostate): 2440 nM | GI50 (EKVX NSCLC): 176 nM | TGI (EKVX NSCLC): 1230 nM | GI50 (HCC-2998 colon): 463 nM | TGI (HCC-2998 colon): 2030 nM | GI50 (HCT-116 colon): 182 nM | TGI (HCT-116 colon): 1320 nM | GI50 (HCT-15 colon): 89.1 nM | TGI (HCT-15 colon): 1550 nM | GI50 (HL-60(TB) leukemia): 166 nM | TGI (HL-60(TB) leukemia): 1690 nM | GI50 (HOP-62 NSCLC): 214 nM | TGI (HOP-62 NSCLC): 1920 nM | GI50 (HOP-92 NSCLC): 330 nM | TGI (HOP-92 NSCLC): 2200 nM | GI50 (HS 578T breast): 1500 nM | TGI (HS 578T breast): 10700 nM | GI50 (HT29 colon): 553 nM | TGI (HT29 colon): 2310 nM | GI50 (IGROV1 ovarian): 146 nM | TGI (IGROV1 ovarian): 1600 nM | GI50 (K-562 leukemia): 356 nM | GI50 (KM12 colon): 341 nM | TGI (KM12 colon): 2060 nM | GI50 (LOX IMVI melanoma): 128 nM | TGI (LOX IMVI melanoma): 1300 nM | GI50 (M14 melanoma): 250 nM | TGI (M14 melanoma): 1370 nM | GI50 (MALME-3M melanoma): 1140 nM | TGI (MALME-3M melanoma): 2550 nM | GI50 (MCF7 breast): 293 nM | TGI (MCF7 breast): 1500 nM | GI50 (MDA-MB-231 breast): 438 nM | TGI (MDA-MB-231 breast): 1940 nM | GI50 (MDA-MB-435): 807 nM | TGI (MDA-MB-435): 2710 nM | GI50 (MDA-MB-468 breast): 190 nM | TGI (MDA-MB-468 breast): 661 nM | GI50 (MOLT-4 leukemia): 235 nM | TGI (MOLT-4 leukemia): 5060 nM | GI50 (NCI-H226 lung): 772 nM | TGI (NCI-H226 lung): 3900 nM | GI50 (NCI-H23 lung): 517 nM | TGI (NCI-H23 lung): 2030 nM | GI50 (NCI-H460 lung): 116 nM | TGI (NCI-H460 lung): 5580 nM | GI50 (NCI-H522 lung): 248 nM | TGI (NCI-H522 lung): 944 nM | GI50 (NCI/ADR-RES ovarian): 255 nM | TGI (NCI/ADR-RES ovarian): 1480 nM | GI50 (OVCAR-3 ovarian): 287 nM | TGI (OVCAR-3 ovarian): 1580 nM | GI50 (OVCAR-4 ovarian): 266 nM | TGI (OVCAR-4 ovarian): 2270 nM | GI50 (OVCAR-5 ovarian): 776 nM | TGI (OVCAR-5 ovarian): 2490 nM | GI50 (OVCAR-8 ovarian): 365 nM | TGI (OVCAR-8 ovarian): 2380 nM | GI50 (PC-3 prostate): 325 nM | TGI (PC-3 prostate): 2190 nM | GI50 (RPMI-8226 leukemia): 290 nM | TGI (RPMI-8226 leukemia): 3450 nM | GI50 (RXF 393 renal): 1050 nM | TGI (RXF 393 renal): 2310 nM | GI50 (SF-268 CNS): 357 nM | TGI (SF-268 CNS): 3900 nM | GI50 (SF-295 CNS): 134 nM | TGI (SF-295 CNS): 1590 nM | GI50 (SF-539 CNS): 406 nM | TGI (SF-539 CNS): 1980 nM | GI50 (SK-MEL-2 melanoma): 475 nM | TGI (SK-MEL-2 melanoma): 1730 nM | GI50 (SK-MEL-28 melanoma): 478 nM | TGI (SK-MEL-28 melanoma): 2090 nM | GI50 (SK-MEL-5 melanoma): 602 nM | TGI (SK-MEL-5 melanoma): 1960 nM | GI50 (SK-OV-3 ovarian): 477 nM | TGI (SK-OV-3 ovarian): 1860 nM | GI50 (SN12C renal): 411 nM | TGI (SN12C renal): 2070 nM | GI50 (SNB-19 CNS): 437 nM | TGI (SNB-19 CNS): 2540 nM | GI50 (SNB-75 CNS): 1010 nM | TGI (SNB-75 CNS): 2880 nM | GI50 (SR leukemia): 46.9 nM | TGI (SR leukemia): 1200 nM | GI50 (SW-620 colon): 422 nM | TGI (SW-620 colon): 2470 nM | GI50 (T-47D breast): 292 nM | TGI (T-47D breast): 1720 nM | GI50 (TK-10 renal): 452 nM | TGI (TK-10 renal): 1770 nM | GI50 (U251 CNS): 199 nM | TGI (U251 CNS): 2210 nM | GI50 (UACC-257 melanoma): 501 nM | TGI (UACC-257 melanoma): 1940 nM | GI50 (UACC-62 melanoma): 302 nM | TGI (UACC-62 melanoma): 1570 nM | GI50 (UO-31 renal): 83.2 nM | TGI (UO-31 renal): 1570 nM
